Each structure is given as a SMILES string.

One data set concerns Male Sprague-Dawley Rats. As to the kind of experiment: Serum clinical chemistries in rats fed compound as dietary admixture. Conditions: % of control; alanine aminotransferase in rat serum; diet 0.3%, 4 days; N = 5. The class given is in vivo. From the text: (§1) A typical experiment consists of 4-6 groups of rats (N = 5 per group) with I group being a control which receives no MDL compound and the other groups being treated with 0.3% MDL compound. Some of the compounds are either repeated at 0.3% or evaluated again at the lower dose of 0.1%. House Male Sprague-Dawley rats, 50-100 g, (Harlan Laboratories, Indianapolis, IN) in groups of 5, feeding ad libitum water and Purina Rodent chow (#5002) with or without MDL compound as a dietary admixture for 4 days. Make dietary admixtures (0.3%) by mixing 1.2 grams of an MDL compound with 400 grams of Purina rodent chow (#5002). Mix the MDL compound with approximately 50 grams of food using a mortar and pestle. This is added to the remainder of the food and mixed for 3 hours on a rotary mixer. In the morning of day 5, anesthetize non-fasted rats with carbon dioxide, and collect blood by cardiac puncture. Sacrifice rats by cervical dislocation. Record body weights and liver weights in grams. Record food consumption as grams • day^-1 • rat^-1. Deaths are recorded as mortality. Use aliquots of fresh serum for clinical chemistries, thiobarbituric acid reactive substances (TBARS) and conjugated diene measurements. Freeze aliquots of serum (∼ 0.5mL) and whole livers at -20°C for compound and metabolite concentration determination at a later time.
Allow blood to clot at room temperature for 30 minutes. Obtain serum after centrifugation for 10 min at 4°C at 3000 rpm in a Beckman J-6M/E centrifuge with a JS-4.2 rotor. Analyze fresh serum by a COBAS MIRA S autoanalyzer (Roche Diagnostics) using Roche diagnostic reagents for the following clinical chemistry measurements: alkaline phosphatase (ALP, kit # 44553), alanine transaminase (ALT, kit # 42375), aspartate aminotransferase (AST, kit # 42381), total cholesterol (CHOL, kit # 44334), triglyceride (TG, kit # 44120), and glucose (GLU, kit # 44558). Calculate ALP, ALT, and AST as units/L. Calculate cholesterol, triglycerides, and glucose as mg/dL.
Take `CC(C)=CCCC(C)CCOc1ccc(O)c(C(C)(C)C)c1` (stereo not shown) [MDL 105,411, Phenol, 2-(1,1-dimethylethyl)-4-[(3,7-dimethyl-6-octenyl)oxy]-]: the ALT stood at 122%.
On to `CC(C)=CCC[C@H](C)CCOc1cc(C(C)(C)C)c(O)cc1C(C)(C)C` [MDL 107,059, Phenol, 2,5-bis(1,1-dimethylethyl)-4-[(3,7-dimethyl-6-octenyl)oxy]-, (S)-], for which the ALT stood at 116%.

Still in this data set, the particulars now being: % of control; alkaline phosphatase in rat serum; diet 0.3%, 4 days; N = 5.
On to `CC(C)=CCCC(C)CCOc1ccc(O)c(C(C)(C)C)c1` (stereo not shown) [MDL 105,411, Phenol, 2-(1,1-dimethylethyl)-4-[(3,7-dimethyl-6-octenyl)oxy]-], for which the ALP is 76%.
On the same count and under the same terms, with `CC(C)=CCC[C@H](C)CCOc1cc(C(C)(C)C)c(O)cc1C(C)(C)C` [MDL 107,059, Phenol, 2,5-bis(1,1-dimethylethyl)-4-[(3,7-dimethyl-6-octenyl)oxy]-, (S)-] the figure was 118%.

Staying with this data set, now noted: % of control; aspartate aminotransferase in rat serum; diet 0.3%, 4 days; N = 5.
Take `CC(C)=CCCC(C)CCOc1ccc(O)c(C(C)(C)C)c1` (stereo not shown) [MDL 105,411, Phenol, 2-(1,1-dimethylethyl)-4-[(3,7-dimethyl-6-octenyl)oxy]-]: the AST is 87%.
As to `CC(C)=CCC[C@H](C)CCOc1cc(C(C)(C)C)c(O)cc1C(C)(C)C` [MDL 107,059, Phenol, 2,5-bis(1,1-dimethylethyl)-4-[(3,7-dimethyl-6-octenyl)oxy]-, (S)-], the AST was found to be 140%.

Still in this data set, the particulars now being: % of control; glucose in rat serum; diet 0.3%, 4 days; N = 5.
As to `CC(C)=CCCC(C)CCOc1ccc(O)c(C(C)(C)C)c1` (stereo not shown) [MDL 105,411, Phenol, 2-(1,1-dimethylethyl)-4-[(3,7-dimethyl-6-octenyl)oxy]-], the GLUC is given as 96%.
On to `CC(C)=CCC[C@H](C)CCOc1cc(C(C)(C)C)c(O)cc1C(C)(C)C` [MDL 107,059, Phenol, 2,5-bis(1,1-dimethylethyl)-4-[(3,7-dimethyl-6-octenyl)oxy]-, (S)-], for which the GLUC came out at 96%.

The data set is the same for the next values; noted with them: feed or water, 96 h; % of control; total cholesterol in rat serum; diet 0.3%, 4 days; N = 5; read-out: CHOL.
With `CC(C)=CCCC(C)CCOc1ccc(O)c(C(C)(C)C)c1` (stereo not shown) [MDL 105,411, Phenol, 2-(1,1-dimethylethyl)-4-[(3,7-dimethyl-6-octenyl)oxy]-], the response vs control in vivo at 0.3 % in diet came out at 105%.
Consider `CC(C)=CCC[C@H](C)CCOc1cc(C(C)(C)C)c(O)cc1C(C)(C)C` [MDL 107,059, Phenol, 2,5-bis(1,1-dimethylethyl)-4-[(3,7-dimethyl-6-octenyl)oxy]-, (S)-], for which the response vs control in vivo at 0.3 % in diet stood at 89%.

Still in this data set, the particulars now being: feed or water, 96 h; % of control; triglycerides in rat serum; diet 0.3%, 4 days; N = 5; read-out: TRIG.
Consider `CC(C)=CCCC(C)CCOc1ccc(O)c(C(C)(C)C)c1` (stereo not shown) [MDL 105,411, Phenol, 2-(1,1-dimethylethyl)-4-[(3,7-dimethyl-6-octenyl)oxy]-], for which the response vs control in vivo at 0.3 % in diet was 100%.
Turning to `CC(C)=CCC[C@H](C)CCOc1cc(C(C)(C)C)c(O)cc1C(C)(C)C` [MDL 107,059, Phenol, 2,5-bis(1,1-dimethylethyl)-4-[(3,7-dimethyl-6-octenyl)oxy]-, (S)-], the response vs control in vivo at 0.3 % in diet is 35%.

In the next data set the test system is oxidation of serum lipids. Kind of data set: TBARS assay on serum of treated rats (CuSO4-initiated oxidation). The class given is in vivo, Male Sprague-Dawley rats. Particulars: % of control; thiobarbituric acid reactive substances as nmoles MDA, rat serum; diet 0.3%, 4 days; N = 5.
Description: as §1
In this assay the oxidation of serum lipids is initiated with CuSO4, resulting in the formation of aldehydes, such as malondialdehyde (MDA). Upon incubation with thiobarbituric acid, the absorbance of the aldehydes can be detected at 530-540 nm. As stated in the previous example, TBARS values which are lower than control serum values indicate the relative ability of a test compound to inhibit the oxidation of lipids in a sample. Measure TBARS as follows: mix 100µL of serum with 400µL of a 5mmol CuSO4 solution and incubate at 37°C for 3 hr. Stop the reactions by addition of 1.0mL of 20% trichloroacetic acid. Then add 1.0mL of 0.67% thiobarbituric acid in 0.05 N sodium hydroxide, mix, and incubate the samples for 30 min at 90°C. Centrifuge samples briefly to pellet undissolved material, and transfer the supernatants to a 96-well microtiter plate. Measure absorbances at 540 nm using a Biotek model EL311 microplate reader. The nmoles of MDA produced are calculated from a standard curve of 0 to 10 nmoles of MDA prepared from malonaldehyde bis(dimethylacetal). Serum samples from treated rats are compared to serum samples from control rats that received no MDL compound.
The compound `CC(C)=CCCC(C)CCOc1ccc(O)c(C(C)(C)C)c1` (stereo not shown) [MDL 105,411, Phenol, 2-(1,1-dimethylethyl)-4-[(3,7-dimethyl-6-octenyl)oxy]-] gave a TBARS of 29%.
Same read-out and setting: then `CC(C)=CCC[C@H](C)CCOc1cc(C(C)(C)C)c(O)cc1C(C)(C)C` [MDL 107,059, Phenol, 2,5-bis(1,1-dimethylethyl)-4-[(3,7-dimethyl-6-octenyl)oxy]-, (S)-], with 78%.

The next data set relates to oxidation of lipids. Kind of data set: Conjugated diene lag phase determination on pooled serum of treated rats. It counts as in vivo, Male Sprague-Dawley rats. Conditions: not normalized, mean of 2 determinations of pooled rat serum (N = 5), diet 0.3%, 4 days.
Description: as §1
Conjugated diene lag phase is another indicator of the oxidation of lipids. Lipids exposed to Cu^++ form conjugated dienes that absorb ultraviolet light in the range of 230 to 235 nm. The lag phase of diene formation gives an indication of the amount of oxidation of the lipids. A lag phase longer than control samples indicate inhibition of the oxidation. Determine conjugated diene lay phase using a Varian DMS200 spectrophotometer (fitted with a constant temperature, 5 cuvette sample changer) at 30°C. Add twenty (20) µL of pooled serum to cuvettes containing 3.0mL phosphate buffered saline, pH 7.5, and mix. Measure the absorbances of all cuvettes and set the instrument baseline to zero using the lowest absorbing sample. Next, add 100µL of 1 mmol CuSO4 and mix immediately. Record the absorbance of each cuvette at 2 min intervals for a period of 840 min. Capture the data and transfer to a Microsoft EXCEL® spreadsheet where the curves are smoothed and differentials obtained. Determine lag times mathematically as minutes. Pool serum samples (N = 5); data presented are the mean values of 2 determinations. Compare serum samples from treated rats to serum samples from control rats that received no MDL compound.
Turning to `CC(C)=CCCC(C)CCOc1ccc(O)c(C(C)(C)C)c1` (stereo not shown) [MDL 105,411, Phenol, 2-(1,1-dimethylethyl)-4-[(3,7-dimethyl-6-octenyl)oxy]-], the “CONJ. DIENE” value was determined as 400 min.
Consider `CC(C)=CCC[C@H](C)CCOc1cc(C(C)(C)C)c(O)cc1C(C)(C)C` [MDL 107,059, Phenol, 2,5-bis(1,1-dimethylethyl)-4-[(3,7-dimethyl-6-octenyl)oxy]-, (S)-], for which the “CONJ. DIENE” value turned out to be 201 min.

Tested on in the next data set: not listed separately
As to the kind of experiment: Animal parameters (food, body weight, liver weight/body weight, mortality) in rats. The class given is in vivo. Conditions: % of control; grams eaten per day per rat; diet 0.3%, 4 days; N = 5.
Description: as §1
`CC(C)=CCCC(C)CCOc1ccc(O)c(C(C)(C)C)c1` (stereo not shown) [MDL 105,411, Phenol, 2-(1,1-dimethylethyl)-4-[(3,7-dimethyl-6-octenyl)oxy]-] came in with a food of 95%.
`CC(C)=CCC[C@H](C)CCOc1cc(C(C)(C)C)c(O)cc1C(C)(C)C` [MDL 107,059, Phenol, 2,5-bis(1,1-dimethylethyl)-4-[(3,7-dimethyl-6-octenyl)oxy]-, (S)-] showed a food of 95%.

Staying with this data set, now noted: % of control; liver weight/body weight; rat; diet 0.3%, 4 days; N = 5.
`CC(C)=CCCC(C)CCOc1ccc(O)c(C(C)(C)C)c1` (stereo not shown) [MDL 105,411, Phenol, 2-(1,1-dimethylethyl)-4-[(3,7-dimethyl-6-octenyl)oxy]-] returned a lw/bw of 114%.
Same read-out and setting: then `CC(C)=CCC[C@H](C)CCOc1cc(C(C)(C)C)c(O)cc1C(C)(C)C` [MDL 107,059, Phenol, 2,5-bis(1,1-dimethylethyl)-4-[(3,7-dimethyl-6-octenyl)oxy]-, (S)-], with 107%.

The data set is the same for the next values; noted with them: % of control; weight in grams; rat; diet 0.3%, 4 days; N = 5.
Take `CC(C)=CCCC(C)CCOc1ccc(O)c(C(C)(C)C)c1` (stereo not shown) [MDL 105,411, Phenol, 2-(1,1-dimethylethyl)-4-[(3,7-dimethyl-6-octenyl)oxy]-]: the body wt. is 101%.
On the same count and under the same terms, then `CC(C)=CCC[C@H](C)CCOc1cc(C(C)(C)C)c(O)cc1C(C)(C)C` [MDL 107,059, Phenol, 2,5-bis(1,1-dimethylethyl)-4-[(3,7-dimethyl-6-octenyl)oxy]-, (S)-], with 95%.

The same data set, now with this note: male, Sprague-Dawley, rat, in vivo, 4 days.
For `CC(C)=CCCC(C)CCOc1ccc(O)c(C(C)(C)C)c1` (stereo not shown) [MDL 105,411, Phenol, 2-(1,1-dimethylethyl)-4-[(3,7-dimethyl-6-octenyl)oxy]-], the mortality is 0%.
For `CC(C)=CCC[C@H](C)CCOc1cc(C(C)(C)C)c(O)cc1C(C)(C)C` [MDL 107,059, Phenol, 2,5-bis(1,1-dimethylethyl)-4-[(3,7-dimethyl-6-octenyl)oxy]-, (S)-], the mortality was 0%.

Tested on in a further data set: not listed separately
Kind of data set: HPLC quantitation of compound and metabolite concentration in rat serum and liver. Particulars: male, Sprague-Dawley, oral, 0.3 % in chow; parent compound concentration in rat liver; diet 0.3%, 4 days; mean N = 5; read-out: Liver Parent. It counts as in vivo.
Description: as §1
Determine serum and liver concentrations of parent compound and the metabolites, bisphenol and diphenoquinone, by reverse phase HPLC using a Waters 990 Powerline system. Homegenize livers (1 gram samples) with 5.0mL PBS, pH 7.4, using a Polytron tissue homogenizer at setting 5 for 20-30 seconds. Extract serum or liver homogenates as follows: add 100µL of either serum or homogenate to 2.0mL diethyl ether: ethanol (3:1) while vortexing the tube. Cap the sample tubes and centrifuge for 10 min at 5°C at 3500 rpm in a Beckman GPKR centrifuge with a GH 3.7 rotor. Transfer the supernatants to clean tubes and dry under N2. Reconstitute samples with 200µL of acetonitrile : hexane : 0.1 M ammonium acetate (90: 6.5 : 3.5, by vol.). Then, inject 100µL onto a Waters Deltapak C18-300 Å column, and elute with an 83% acetonitrile : 17% water mobile phase at a flow rate of 1.5mL/min. Record absorbances at the wavelengths of 240, 254, and 420nm. Calculate compound concentrations from known quantities of authentic parent compounds after correction for recovery. […]. Calculate concentrations as µg/mL of serum and µg/g of liver.
Consider `CC(C)=CCCC(C)CCOc1ccc(O)c(C(C)(C)C)c1` (stereo not shown) [MDL 105,411, Phenol, 2-(1,1-dimethylethyl)-4-[(3,7-dimethyl-6-octenyl)oxy]-], for which the concentration at 5 day is 0 ng/g.
Same read-out and setting: with `CC(C)=CCC[C@H](C)CCOc1cc(C(C)(C)C)c(O)cc1C(C)(C)C` [MDL 107,059, Phenol, 2,5-bis(1,1-dimethylethyl)-4-[(3,7-dimethyl-6-octenyl)oxy]-, (S)-] the figure was 0 ng/g.

The same data set, now with this note: male, Sprague-Dawley, oral, 0.3 % in chow; parent compound concentration in rat serum; diet 0.3%, 4 days; mean N = 5; read-out: Serum Parent.
Turning to `CC(C)=CCCC(C)CCOc1ccc(O)c(C(C)(C)C)c1` (stereo not shown) [MDL 105,411, Phenol, 2-(1,1-dimethylethyl)-4-[(3,7-dimethyl-6-octenyl)oxy]-], the concentration at 5 day stood at 1100 ng/mL.
In the case of `CC(C)=CCC[C@H](C)CCOc1cc(C(C)(C)C)c(O)cc1C(C)(C)C` [MDL 107,059, Phenol, 2,5-bis(1,1-dimethylethyl)-4-[(3,7-dimethyl-6-octenyl)oxy]-, (S)-], the concentration at 5 day was 0 ng/mL.

The record behind these values is patent EP0942896B1, “SUBSTITUTED PHENOLS AND THIOPHENOLS USEFUL AS ANTIOXIDANT AGENTS” (Aventis Pharmaceuticals Inc., priority 1996, dated 1998).
